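All cell lines were grown in 96-well plates and treated with compound for 48 hours. GI50 marks 50% less growth.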 The source made the active and inactive calls. Cut-off read from the data, not from the text of the source: active = GI50 up to about 1.1 µM and inactive = higher.
Columns and labels:
Test in all cases: growth of human tumour cells (NCI), 48 h
[1] = tested on: DMS-273
[2] = tested on: OVCAR-5
[3] = tested on: SF-268
[4] = tested on: UACC-257
[5] = tested on: M14
[6] = tested on: XF498
[7] = tested on: NCI-H226
[8] = tested on: HOP-62
[9] = tested on: SNB-78
[10] = tested on: 786-0
[11] = tested on: A498
[12] = tested on: DU-145
[13] = tested on: MCF7
[14] = tested on: MDA-MB-435
[15] = tested on: SN12C
[16] = tested on: T47D
[17] = tested on: PC-3
[18] = tested on: Hs-578T
[19] = tested on: MDA-MB-231
[20] = tested on: NCI/ADR-RES

Measured: GI50

CCOC(=O)c1ccc(O)cc1 [ETHYLPARABEN]
inactive: [1] 55.5 µM | [2] > 100 µM | [3] > 100 µM | [4] > 100 µM | [5] > 100 µM | [6] > 100 µM | [7] > 100 µM | [8] > 100 µM | [9] > 100 µM | [10] > 100 µM

COc1ccc2c(c1)[n+]([O-])c(/C(C)=N/NC(N)=S)c(C)[n+]2[O-]
inactive: [11] > 100 µM | [12] 44.2 µM | [13] 41.4 µM | [14] 78.3 µM | [15] 39.4 µM | [2] > 88.5 µM | [3] 46.3 µM | [16] 49.2 µM | [4] > 60.3 µM | [5] 37.6 µM | [6] 39 µM | [7] > 61.7 µM | [8] 75.3 µM | [17] > 100 µM | [9] > 100 µM | [10] 43.6 µM | [18] > 100 µM | [19] 89.7 µM | [20] 28.8 µM

COc1ccc(-c2ccc(CC(=O)O)cc2)cc1OC
inactive: [11] > 100 µM | [15] > 100 µM | [2] > 100 µM | [3] > 100 µM | [4] > 100 µM | [5] > 100 µM | [6] 20.7 µM | [7] > 100 µM | [8] 95.5 µM | [9] > 100 µM | [10] > 100 µM

NNC(=O)/C(NC(=O)c1ccccc1)=C(\N)c1cccc([N+](=O)[O-])c1
inactive: [11] > 100 µM | [15] > 100 µM | [1] > 100 µM | [2] > 100 µM | [3] > 100 µM | [4] > 100 µM | [5] > 100 µM | [6] > 100 µM | [7] > 100 µM | [8] > 100 µM | [9] > 100 µM | [10] > 100 µM

CC1=C[C@]2(O)C(=O)[C@H](C)C[C@H]3[C@@H](CC[C@@](C)(O)/C=C\2C1=O)C3(C)C
inactive: [11] 27.4 µM | [15] 20.3 µM | [1] 22.4 µM | [2] > 76.7 µM | [3] 20.7 µM | [4] 17.4 µM | [5] 17.3 µM | [6] 16.3 µM | [7] 33.7 µM | [8] > 49.8 µM | [9] 26.2 µM | [10] 18.9 µM

Cc1cc(C)nc(NS(=O)(=O)c2ccc(Nc3c4ccccc4nc4c(C(=O)Nc5ccc(S(=O)(=O)Nc6cc(C)on6)cc5)cccc34)cc2)n1
inactive: [11] 19.2 µM | [15] 24.5 µM | [1] 23.8 µM | [2] 24.3 µM | [3] 24.2 µM | [4] 25.5 µM | [5] 20.8 µM | [6] 22.5 µM | [7] 21 µM | [8] 21.2 µM | [9] 30.9 µM | [10] 18.5 µM

Cc1ccc2[nH]c3c(C)c4cc[n+](C)cc4c(C)c3c2c1
active: [11] 0.891 µM | [12] 0.628 µM | [15] 0.271 µM | [3] 0.441 µM | [7] 0.74 µM | [8] 0.774 µM | [17] 0.63 µM | [9] 0.787 µM | [10] 0.328 µM | [18] 0.232 µM | [19] 0.931 µM
inactive: [13] 1.95 µM | [14] 2.45 µM | [1] 2.33 µM | [2] 5 µM | [16] 1.55 µM | [4] 3.71 µM | [5] 6.43 µM | [20] 7.93 µM

COc1ccc(/C(C=O)=C(\Cl)c2ccc(OC)c(OC)c2)cc1
inactive: [11] 18.4 µM | [15] > 100 µM | [1] 49.2 µM | [2] > 100 µM | [3] 46.1 µM | [4] > 100 µM | [5] > 100 µM | [6] 15.4 µM | [7] > 100 µM | [8] 36.8 µM | [9] 23 µM

CCCCCCCCCCCCCCCCCCC1=C(O)C(=O)C=C(OC)C1=O
inactive: [11] > 100 µM | [15] 45.4 µM | [1] 55.2 µM | [2] 39.5 µM | [3] 38.5 µM | [4] 78.2 µM | [5] 53.2 µM | [6] > 100 µM | [7] 62.5 µM | [8] 34.3 µM | [9] 71.9 µM | [10] 34.3 µM

COc1cccc2c1C(=O)c1c(O)c3c(c(O)c1C2=O)C[C@@](O)(C(C)=O)CC3S(=O)(=O)O (stereo partly drawn)
inactive: [11] > 100 µM | [15] > 100 µM | [1] > 100 µM | [2] > 100 µM | [3] > 100 µM | [4] > 100 µM | [5] > 100 µM | [6] > 100 µM | [7] > 100 µM | [8] > 100 µM | [9] > 94.2 µM | [10] > 100 µM

O=C1c2ccccc2C(=O)C1(O)c1c[nH]c2ccccc12
inactive: [2] > 100 µM | [3] > 100 µM | [4] > 100 µM | [5] > 100 µM | [6] > 100 µM | [8] > 100 µM | [9] > 100 µM | [10] > 100 µM

CN(C)c1ccc(/C=C/C(=O)C(C)(C)C)cc1Br
inactive: [11] 41.1 µM | [15] 24.9 µM | [2] 49 µM | [3] 20.3 µM | [4] 24 µM | [5] 18.9 µM | [6] 15 µM | [8] 63.5 µM | [9] 44.2 µM | [10] 24 µM

N#CC(Nc1cccc(C(F)(F)F)c1)c1ccccc1C(F)(F)F (stereo not drawn)
inactive: [11] 19.1 µM | [15] 7.4 µM | [1] 8.04 µM | [2] 14.8 µM | [3] 17.2 µM | [4] 14.6 µM | [5] 7.29 µM | [6] 3.94 µM | [7] 15.9 µM | [8] 3.52 µM | [9] 20.1 µM

C=CCCC(=O)CC(=O)OCc1ccccc1
inactive: [11] > 100 µM | [15] > 100 µM | [1] > 100 µM | [2] > 100 µM | [3] > 100 µM | [4] > 100 µM | [5] > 100 µM | [6] > 100 µM | [8] > 100 µM | [9] > 100 µM | [10] > 100 µM

CCC1CN2CCC3(c4ccccc4)CC(C(=O)OC)=CC1C23 (stereo not drawn)
active: [6] 0.183 µM
inactive: [11] 18.6 µM | [15] 16.1 µM | [2] 5.6 µM | [3] 14.3 µM | [4] 16.4 µM | [5] 14.8 µM | [7] 17 µM | [8] 19.2 µM | [9] 19.3 µM | [10] 17.2 µM

Cc1ccc(SC(CCC(Sc2ccc(C)cc2)Sc2ccc(C)cc2)Sc2ccc(C)cc2)cc1
inactive: [11] > 100 µM | [15] > 100 µM | [1] > 100 µM | [3] > 100 µM | [4] > 100 µM | [5] > 100 µM | [6] > 100 µM | [8] > 100 µM | [9] > 100 µM | [10] > 100 µM

O=S(O)c1cc(Cl)c(O)c(Cl)c1
inactive: [11] > 100 µM | [15] > 100 µM | [2] > 100 µM | [3] > 100 µM | [4] > 100 µM | [5] > 100 µM | [6] > 100 µM | [8] > 100 µM | [9] > 100 µM

CCC1=C(C(C)=O)[C@@H]2CCCCC[C@@H](C(=O)OC)C2C1=O (stereo partly drawn)
inactive: [11] > 100 µM | [15] > 100 µM | [1] > 100 µM | [2] > 100 µM | [3] > 100 µM | [4] > 100 µM | [5] > 100 µM | [6] > 100 µM | [8] > 100 µM | [9] > 100 µM | [10] > 100 µM

N#CC1=C(N)n2c(s/c(=C\c3ccc(Cl)cc3)c2=O)=C(c2nc3ccccc3[nH]2)C1c1ccc(Cl)cc1 (stereo not drawn)
inactive: [11] 1.38 µM | [15] 2.19 µM | [1] 2.12 µM | [2] 2.02 µM | [3] 2.64 µM | [4] 2.48 µM | [5] 3.62 µM | [6] 1.63 µM | [7] 1.91 µM | [8] 2.23 µM | [10] 2.23 µM

CCOC(=O)C(=O)Nc1cc(Cl)ccc1Cl
inactive: [11] > 100 µM | [15] > 100 µM | [1] > 100 µM | [2] > 100 µM | [3] > 100 µM | [4] > 100 µM | [5] > 100 µM | [6] > 100 µM | [7] > 100 µM | [8] > 100 µM | [10] > 100 µM

COc1ccc2[nH]cc(/C=C(/C)c3ccncc3)c2c1
inactive: [11] 5.07 µM | [13] 3.47 µM | [15] 8.59 µM | [1] 1.57 µM | [2] 33.1 µM | [3] 11.1 µM | [4] 7.48 µM | [6] 10.7 µM | [7] 22.6 µM | [8] 7.64 µM | [20] 2.94 µM

Cc1ccc(S(=O)(=O)C2=c3ncccc3=C3C(=O)c4ccccc4C(=O)C32)cc1 (stereo not drawn)
inactive: [11] 5.81 µM | [12] > 100 µM | [13] > 71.9 µM | [14] > 100 µM | [15] > 100 µM | [1] 26.5 µM | [2] > 10 µM | [3] 46.7 µM | [16] 68.4 µM | [4] 66.7 µM | [5] > 100 µM | [7] > 29.9 µM | [8] 4.71 µM | [17] 61.4 µM | [9] > 100 µM | [10] 28.4 µM | [18] 22.6 µM | [19] 29.6 µM | [20] 49.3 µM
